Where two headings read alike, the source gives them in different places. No end group written: not given here.

The subject of assay [1] is cartilage proteoglycan degradation. Conditions: 100 μM; cited from earlier work.
For a further assay, the target named is T1, human liver Cathepsin L (Homo sapiens, UniProt P07711).
T1 construct: from tissue; host or cells: human liver
The assay is described as follows: Cathepsin L fluorescence assay (hydrolysis of Z-Phe-Arg-AMC). In kind it is biochemical. Here is the method:
A fluorescence based assay was set up according to Barrett and Kirschke (Barrett et al., 1981, Meth. in Enz., 80:535).
The enzyme sample was diluted with 750 μl of assay buffer (340 mM sodium acetate--60 mM acetic acid--4 mM disodium EDTA, pH 5.5 and 8 mM DTT added fresh) and various concentrations of CTAL-2β (a final concentration of 5-50 nM), was added. After an incubation period of 6 minutes at room temperature, 1500 μl of 0.1% Brij 35 was added. The substrate Z-Phe-Arg-AMC (AMC is aminomethyl-coumarin) was added at a final concentration of either 2.5 μM or 5.0 μM.
The fluoresence of the free aminomethyl-coumarin was measured in an SLM 4800S fluorimeter by excitation at 370 nm and emission at 432 nm over a six minute time period. […] In order to calculate the velocities, a linear least squares analysis was performed over the initial linear part of the data.
The Ki value is equal to the negative of the X-axis intercept that gives the same velocity at the different substrate concentrations if there is competitive inhibition (Dixon et al., 1979, Enzymes, 3rd Ed., Academic Press, New York, page, 365).
These peptides were tested for inhibition of Cathepsin L activity using the assays described previously. Briefly, Cathepsin L (19 pM final as determined by active site titration using E-64, Barret & Kirschke, 1991) was added to 750 μL of assay buffer consisting of […] sodium acetate--60 mM acetic acid (pH 5.5), 4 mM disodium EDTA, and 8 mM DTT. Peptides were added at concentrations ranging from on to 35 μM. […] The fluorescence of the free aminomethylcoumarin was measured in an SLM 4800s fluorimeter at excitation of 370 nm and an emission at 432 nm over a 6 minute time period. Fluorence was converted to μM AMC released by using a standard curve generated by plotting μM AMC vs. fluorescence, and plotted vs. time. […] The i.c. 50 values were determined from Dixon plots of the form V-/V+ (velocity without peptide/velocity with peptide) vs. peptide concentration. […]

Assay [2] relates to proteoglycan release from articular cartilage explants. Nature of the assay: Micro organ culture assay (MOCA): IL-1 induced proteoglycan release from articular cartilage explants. In kind it is cell-based, calf. To be noted: p117 10 μM (best concentration); IL-1 alpha 50 U/ml. The text has this:
The assay system used for testing the peptides for inhibitory activity of proteolglycan release is a micro organ culture assay (MOCA). Papain; cetyl pyridinium chloride and chondroitin sulfate type C was purchased from Sigma Chemical Co. (St. Louis, MO). Interleukin 1 alpha was purchased from Collaborative Research. ABCase, chrondroitinase, ABC lyase, and keratanase were obtained from ICL Na^35 SO4 was purchased from NEN.
Articular cartilage explants from calk knee joints were maintained in culture in DMEM medium containing 20 μCi/ml Na ^35 SO4 for 48 hours for the incorporation of label into newly synthesized proteoglycan (PG). The radiolabelled medium was then removed, the radiolabelled explants washed 3×30 ml cold DMEM and placed into a 96 well plate with or without IL-1 (Interleukin-1 alpha, 50 U/ml) and various concentrations of p117. The explants were incubated first for 24 hours in the presence of IL-1 in order to ensure initiation of IL-1 indicated auto-catalysis prior to the addition of various metalloprotease inhibitors for an additional 72 hours.
The newly synthesized radiolabelled proteoglycans released during the cultivation period were subjected to enzymatic digestion with papain. […] The filter was dried and counted after addition of 10 mls of scintillation cocktail (scintillant).

The target of a further assay is papain (Carica papaya, UniProt P00784). To be noted: read-out: i.c. 50 in Papain Assay; substrate Z-Phe-Arg-AMC; papain 33.3 ng/ml; Dixon plot V-/V+ vs. I. Here is the method: The fluorescence was measured and the i.c. 50 was determined.
Chain of papain (P00784 134-345): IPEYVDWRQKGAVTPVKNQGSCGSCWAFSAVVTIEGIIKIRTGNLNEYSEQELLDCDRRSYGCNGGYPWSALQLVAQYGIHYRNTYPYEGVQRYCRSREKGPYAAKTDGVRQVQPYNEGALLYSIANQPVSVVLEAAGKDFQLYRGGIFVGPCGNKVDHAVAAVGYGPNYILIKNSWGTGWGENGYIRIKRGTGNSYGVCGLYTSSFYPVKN

T1 sequence (P07711 114-288 limits assumed): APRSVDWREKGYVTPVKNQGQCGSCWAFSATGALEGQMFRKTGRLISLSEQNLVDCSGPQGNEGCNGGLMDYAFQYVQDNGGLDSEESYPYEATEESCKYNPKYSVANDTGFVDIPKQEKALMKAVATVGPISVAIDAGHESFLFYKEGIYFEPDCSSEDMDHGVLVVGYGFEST
T1 sequence (P07711 292-333 limits assumed): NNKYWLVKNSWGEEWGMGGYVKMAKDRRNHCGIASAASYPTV

For the molecule `CC(C)C[C@H](NC(=O)[C@H]1O[C@@H]1C(=O)O)C(=O)NCCCCN=C(N)N` (relative stereo) [E64, trans-epoxysuccinyl L-leucylamido-(4-guanido)butane], in assay [1], the “inhibition of IL-1 stimulated cartilage proteoglycan degradation” value was “did not work”. For the molecule `CC(C)CCNC(=O)[C@H](CC(C)C)NC(=O)[C@H]1O[C@@H]1C(=O)O` [Ep475], the “inhibition of IL-1 stimulated cartilage proteoglycan degradation” value in assay [1] was “did not work”.

Take CRGEMAPDLPEYEDLG [p092]: the IC50 at human liver Cathepsin L (Cathepsin L 19 pM, 5.0 μM Z-Phe-Arg-NMec (AMC), 6 minute incubation at 25° C., read-out: i.c. 50 (synthetic peptides, Cathepsin L)) is 41 µM. Take ENKKKIEAHNADYERGKTSFC [P089]: the “inhibition of Cathepsin L at 10 uM peptide” value against human liver Cathepsin L (peptide 10 uM, printed in the i.c. 50 column) is given as 25%.

With YSLDEERHRRLMWEENKKKIEAH [p117], the “% inhibition of proteoglycan release” value in assay [2] was “about 30%”.

B1: monomeric CTLA-2β: monomeric form of recombinant CTLA-2β, mass 12.8 kd, reverse-phase purified (protein, UniProt P12400 1-113, looked up)
Protein CTLA-2-beta: MMSAAPSPDPSLDNEWKEWKTTFAKAYSLDEERHRRLMWEENKKKIEAHNADYERGKTSFYMGLNQFSDLTPEEFRTNCCGSSMCRGEMAPDLPEYEDLGKNSYLTPGRAQPE
Regarding B1, the IC50 with human liver Cathepsin L (reverse-phase purified CTLA-2β, Dixon plot V-/V+ vs. I, substrate Z-Phe-Arg-AMC, read-out: i.c. 50 in Cathepsin L Assay) stood at 0.0182 µM; in the assay with papain, 14 nM.

These data come from patent US5962633A, “Cytotoxic T-lymphocyte antigen as cysteine protease inhibitor” (Bayer Corporation, priority 1995, dated 1999).
